Measured values: patent US6906098B2, “Mixed steroidal 1,2,4,5-tetraoxane compounds and methods of making and using thereof” (priority 2002, dated 2005)
In brackets after ≈: the same amount, converted by molar mass. Several values for one entry are separate records, joined by “and”; a condition that tells them apart may be missing. Identical values can stand only once. Like-named read-outs stand apart in the source and are kept apart here.

How the values were obtained:
M. tuberculosis H37Rv = assay: Minimum inhibitory concentration (MIC) in the MABA; type: cell-based, Mycobacterium tuberculosis
Method: (§1) The activity of the compounds of the present invention against Mycobacterium tuberculosis was determined using the following assays conducted by the National Institute of Allergy and Infectious Diseases (NIAID) supports a TB drug acquisition and screening program, the TAACF.
2. Minimum Inhibitory Concentration (MIC)
The MIC is defined as the lowest concentration effecting a reduction in fluorescence of 90% relative to controls. Minimum compound requirements: 1.0 mg.

[1] = test system: Mycobacterium tuberculosis H37Rv (ATCC 27294); assay: Primary screen, Microplate Alamar Blue Assay (MABA), percent inhibition; type: cell-based; settings: primary screening at 6.25 μg/ml; for inhibition at 6.25 µg/mL: Mycobacterium tuberculosis
Method: as §1
To determine the percent inhibition the following assay was conducted. Primary screening was conducted at 6.25 μg/ml (or the molar equivalent of highest molecular weight compound in a given series of congeners) against Mycobacterium tuberculosis H37Rv (ATCC 27294) in BACTEC 12B medium using the Microplate Alamar Blue Assay (MABA). See Collins, L. and S. G. Franzblau. 1997. Microplate alamar blue assay versus BACTEC 460 system for high-throughput screening of compounds against Mycobacterium tuberculosis and Mycobacterium avium. Antimicrob Agents Chemother 41:1004-9, which is herein incorporated by reference.
Minimum compound requirements: 1.0 mg.

[2] = test system: D6 and W2 P. falciparum clones; type: cell-based, Plasmodium falciparum; settings: IC50 (W2)/IC50 (D6) ratio
[3] = test system: Plasmodium falciparum chloroquine-susceptible strain D6; assay: In vitro antimalarial drug susceptibility assay (radiolabeled hypoxanthine incorporation), strain D6; type: cell-based; settings: for Strain D6 IC50: growth inhibition, chloroquine-susceptible strain D6, 66 h incubation; for IC50: Plasmodium falciparum, D6, 66 h
[4] = test system: Plasmodium falciparum chloroquine-resistant strain W2; assay: microbe, parasite or virus in culture; type: cell-based; settings: for Strain W2 IC50: growth inhibition, chloroquine-resistant strain W2, 66 h incubation; for IC50: Plasmodium falciparum, W2, 66 h
[5] = Table 5, Alamar assay, M. tuberculosis H37Rv
[6] = Mycobacterium tuberculosis, H37RV, Table 3, H37Rv, read-out: MIC
[7] = Mycobacterium tuberculosis, H37RV, Table 5, Alamar assay, M. tuberculosis H37Rv, read-out: MIC
[8] = Table 3, H37Rv, read-out: Inhibition (%)
[9] = Table 5, Alamar assay, read-out: % Inhib
[10] = read-out: Strain D6 IC50, growth inhibition, chloroquine-susceptible strain D6, 66 h incubation
[11] = read-out: Strain W2 IC50, growth inhibition, chloroquine-resistant strain W2, 66 h incubation

CCNC(=O)CCC(C)[C@H]1CCC2C3C(C[C@H](OC(C)=O)[C@@]21C)[C@@]1(C)CCC2(C[C@H]1C[C@H]3OC(C)=O)OOC1(CCC(CC)CC1)OO2 (single isomer, unassigned) [31/1C42, N-Ethyl-7α,12α-Diacetoxy-5β-cholan-24-amide-3-spiro-6′-(1′,2′,4′,5′-tetraoxacyclohexane)-3′-spiro-1″-((4″S or R)-ethyl)cyclohexane]
MIC (M. tuberculosis H37Rv; [5]): >6.25 µg/mL | % Inhib ([1]; Table 5, Alamar assay): 83% | Resistance Index [2]: 0.78 | Strain D6 IC50 [3]: 0.01564 µg/mL | Strain W2 IC50 [4]: 0.01222 µg/mL

CCCNC(=O)CCC(C)[C@H]1CCC2C3C(C[C@H](OC(C)=O)[C@@]21C)[C@@]1(C)CCC2(C[C@H]1C[C@H]3OC(C)=O)OOC1(CCC(c3ccccc3)CC1)OO2 (single isomer, unassigned) [Compound 1C48, N-(n-Propyl)-7α,12α-Diacetoxy-5β-cholan-24-amide-3-spiro-6′-(1′,2′,4′,5′-tetraoxacyclohexane)-3′-spiro-1″-((4″R or S)-phenyl)cyclohexane]
MIC (M. tuberculosis H37Rv; [6]): > 6.25 µg/mL | MIC (M. tuberculosis H37Rv; [7]): > 6.25 µg/mL | inhibition at 6.25 µg/mL [1, 8]: 46% | inhibition at 6.25 µg/mL [1, 9]: 46% | Resistance Index [2]: 1.02 | Strain D6 IC50 [3]: 0.00659 µg/mL | Strain W2 IC50 [4]: 0.00672 µg/mL

CNC(=O)CCC(C)[C@H]1CCC2C3C(C[C@H](OC(C)=O)[C@@]21C)[C@@]1(C)CCC2(C[C@H]1C[C@H]3OC(C)=O)OOC1(CCC(c3ccccc3)CC1)OO2 (single isomer, unassigned) [Compound 1C51, N-Methyl-7α,12α-Diacetoxy-5β-cholan-24-amide-3-spiro-6′-(1′,2′,4′,5′-tetraoxacyclohexane)-3′-spiro-1″-((4″S or R)-phenyl)cyclohexane]
MIC (M. tuberculosis H37Rv; Table 3, H37Rv): >6.25 µg/mL | MIC (M. tuberculosis H37Rv; [5]): >6.25 µg/mL | Inhibition (%) ([1]; Table 3, H37Rv): 61% | % Inhib ([1]; Table 5, Alamar assay): 61% | Resistance Index [2]: 0.85 | Strain D6 IC50 [3]: 0.06462 µg/mL | Strain W2 IC50 [4]: 0.05472 µg/mL

COC(=O)CCC(C)[C@H]1CCC2C3C(C[C@H](OC(C)=O)[C@@]21C)[C@@]1(C)CCC2(C[C@H]1C[C@H]3OC(C)=O)OOC1(CCC(C)CC1)OO2 (mixture of isomers) [8g/1B08a, Methyl 7α,12α-diacetoxy-5β-cholan-24-oate-3-spiro-6′-(1′,2′,4′,5′-tetraoxacyclohexane)-3′-spiro-1″-((4″R)- and (4″S)-methyl)cyclohexane]
MIC (M. tuberculosis H37Rv; [6]): > 6.25 µg/mL and > 9.63 µM | MIC (M. tuberculosis H37Rv; [7]): > 6.25 µg/mL | inhibition at 6.25 µg/mL [1, 8]: 29% | inhibition at 6.25 µg/mL [1, 9]: 29% | Resistance Index [2]: 0.50 | Strain D6 IC50 [3]: 0.00648 µg/mL | Strain W2 IC50 [4]: 0.00327 µg/mL

OC(c1cc(C(F)(F)F)nc2c(C(F)(F)F)cccc12)C1CCCCN1 (centres unmarked) [Mefloquine, reference compound]
IC50 [3, 10]: 0.0106 µg/mL (≈ 0.0281 µM)

CCNC(=O)CCC(C)[C@H]1CCC2C3C(C[C@H](OC(C)=O)[C@@]21C)[C@@]1(C)CCC2(C[C@H]1C[C@H]3OC(C)=O)OOC1(CCC(c3ccccc3)CC1)OO2 (single isomer, unassigned) [Compound 1C52, N-Ethyl-7α,12α-Diacetoxy-5β-cholan-24-amide-3-spiro-6′-(1′,2′,4′,5′-tetraoxacyclohexane)-3′-spiro-1″-((4″S or R)-phenyl)cyclohexane]
MIC (M. tuberculosis H37Rv; Table 3, H37Rv): >6.25 µg/mL | MIC (M. tuberculosis H37Rv; [5]): >6.25 µg/mL | Inhibition (%) ([1]; Table 3, H37Rv): 62% | % Inhib ([1]; Table 5, Alamar assay): 62% | Resistance Index [2]: 0.99 | Strain D6 IC50 [3]: 0.03279 µg/mL | Strain W2 IC50 [4]: 0.03258 µg/mL

COC(=O)CCC(C)[C@H]1CCC2C3C(C[C@H](OC(C)=O)[C@@]21C)[C@@]1(C)CCC2(C[C@H]1C[C@H]3OC(C)=O)OOC1(CCCCC1)OO2 (stereo partly drawn) [8b/1B05, Methyl 7α,12α-Diacetoxy-5β-cholan-24-oate-3-spiro-6′-(1′,2′,4′,5′-tetraoxacyclohexane)-3′-spirocyclohexane]
MIC (M. tuberculosis H37Rv; [7]): > 6.25 µg/mL | inhibition at 6.25 µg/mL [1, 9]: 0% | Resistance Index [2]: 0.79 | IC50 [3, 10]: 0.0136 µg/mL (≈ 0.0215 µM) | IC50 [4, 11]: 0.0108 µg/mL (≈ 0.017 µM)

CC(=O)O[C@H]1CC2C(C3CC[C@H](C(C)CCC(N)=O)[C@]31C)[C@H](OC(C)=O)C[C@@H]1CC3(CC[C@]21C)OOC1(CCC(c2ccccc2)CC1)OO3 (single isomer, unassigned) [Compound 1C50, 7α,12α-Diacetoxy-5β-cholan-24-amide-3-spiro-6′-(1′,2′,4′,5′-tetraoxacyclohexane)-3′-spiro-1″-((4″S or R)-phenyl)cyclohexane]
MIC (M. tuberculosis H37Rv; Table 3, H37Rv): 6.25 µg/mL (≈ 8.98 µM) | MIC (M. tuberculosis H37Rv; [5]): >6.25 µg/mL | Inhibition (%) ([1]; Table 3, H37Rv): 87% | % Inhib ([1]; Table 5, Alamar assay): 87% | Resistance Index [2]: 0.92 | Strain D6 IC50 [3]: 0.04049 µg/mL | Strain W2 IC50 [4]: 0.03746 µg/mL

CC(=O)O[C@H]1CC2C(C3CC[C@H](C(C)CCC(=O)O)[C@]31C)[C@H](OC(C)=O)C[C@@H]1CC3(CC[C@]21C)OOC1(CCCCC1C)OO3 (stereo partly drawn) [9d/1C16, 7α,12α-Diacetoxy-5β-cholan-24-oic acid-3-spiro-6′-(1′,2′,4′,5′-tetraoxacyclohexane)-3′-spiro-1″-(2″-methyl)cyclohexane]
MIC (M. tuberculosis H37Rv; [7]): > 6.25 µg/mL | inhibition at 6.25 µg/mL [1, 9]: 0% | Resistance Index [2]: 0.56 | IC50 [3, 10]: 0.0429 µg/mL (≈ 0.0676 µM) | IC50 [4, 11]: 0.0238 µg/mL (≈ 0.0375 µM)

CCN(CC)CCCC(C)Nc1ccnc2cc(Cl)ccc12 (centres unmarked) [Chloroquine, reference compound]
IC50 ([3]; read-out: Strain D6 IC50): 0.00371 µg/mL (≈ 0.0116 µM) | IC50 ([4]; read-out: Strain W2 IC50): 0.0883 µg/mL (≈ 0.276 µM)

CCNC(=O)CCC(C)[C@H]1CCC2C3C(C[C@H](OC(C)=O)[C@@]21C)[C@@]1(C)CCC2(C[C@H]1C[C@H]3OC(C)=O)OOC1(CCC(c3ccccc3)CC1)OO2 (single isomer, unassigned) [Compound 1C47, N-Ethyl-7α,12α-Diacetoxy-5β-cholan-24-amide-3-spiro-6′-(1′,2′,4′, 5′-tetraoxacyclohexane)-3′-spiro-1″-((4″R or S)-phenyl)cyclohexane]
MIC (M. tuberculosis H37Rv; [6]): > 6.25 µg/mL | MIC (M. tuberculosis H37Rv; [7]): > 6.25 µg/mL | inhibition at 6.25 µg/mL [1, 8]: 50% | inhibition at 6.25 µg/mL [1, 9]: 50% | Resistance Index [2]: 1.08 | Strain D6 IC50 [3]: 0.00541 µg/mL | Strain W2 IC50 [4]: 0.00587 µg/mL

COC(=O)CCC(C)[C@H]1CCC2C3C(C[C@H](OC(C)=O)[C@@]21C)[C@@]1(C)CCC2(C[C@H]1C[C@H]3OC(C)=O)OOC1(CCCC1)OO2 (stereo partly drawn) [8a/1B04, Methyl 7α,12α-Diacetoxy-5β-cholan-24-oate-3-spiro-6′-(1′,2′,4′,5′-tetraoxacyclohexane)-3′-spirocyclopentane]
MIC (M. tuberculosis H37Rv; [7]): > 6.25 µg/mL | inhibition at 6.25 µg/mL [1, 9]: 0% | Resistance Index [2]: 0.71 | IC50 [3, 10]: 0.0243 µg/mL (≈ 0.0391 µM) | IC50 [4, 11]: 0.0172 µg/mL (≈ 0.0277 µM)

Methyl 7α,12α-diacetoxy-5β-cholan-24-oate-3-spiro-6′-(1′,2′,4′,5′-tetraoxacyclohexane)-3′-spiro-1″-((4″R or S)- and (4″S or R)-ethoxycarbonyl)cyclohexane [Compound 1B12b]
Resistance Index [2]: 1.77 | Strain D6 IC50 [3]: 0.03101 µg/mL | Strain W2 IC50 [4]: 0.05492 µg/mL

COC(=O)CCC(C)[C@H]1CCC2C3C(C[C@H](OC(C)=O)[C@@]21C)[C@@]1(C)CCC2(C[C@H]1C[C@H]3OC(C)=O)OOC1(CCC(c3ccccc3)CC1)OO2 (single isomer, unassigned) [Compound 1B14b, Methyl 7α,12α-diacetoxy-5β-cholan-24-oate-3-spiro-6′-(1′,2′,4′,5′-tetraoxacyclohexane)-3′-spiro-1″-((4″R or S)- and (4″S or R)-phenyl)cyclohexane]
MIC (M. tuberculosis H37Rv; Table 3, H37Rv): >6.25 µg/mL | MIC (M. tuberculosis H37Rv; [5]): >6.25 µg/mL | Inhibition (%) ([1]; Table 3, H37Rv): 46% | % Inhib ([1]; Table 5, Alamar assay): 46% | Resistance Index [2]: 0.79 | Strain D6 IC50 [3]: 0.03176 µg/mL | Strain W2 IC50 [4]: 0.025 µg/mL

CCC1CCC2(CC1)OOC1(CC[C@]3(C)C4C[C@H](OC(C)=O)[C@@]5(C)C(CC[C@@H]5C(C)CCC(=O)O)C4[C@H](OC(C)=O)C[C@@H]3C1)OO2 (single isomer, unassigned) [9i/1C34, 7α,12α-Diacetoxy-5β-cholan-24-oic acid-3-spiro-6′-(1′,2′,4′,5′-tetraoxacyclohexane)-3′-spiro-1″-((4″R or S)-ethyl)cyclohexane]
MIC (M. tuberculosis H37Rv; [7]): > 6.25 µg/mL | inhibition at 6.25 µg/mL [1, 9]: 80% | Resistance Index [2]: 1.26 | IC50 [3, 10]: 0.00374 µg/mL (≈ 0.00576 µM) | IC50 [4, 11]: 0.00471 µg/mL (≈ 0.00726 µM)

Methyl 7α,12α-diacetoxy-5β-cholan-24-oate-3-spiro-6′-(1′,2′,4′,5′-tetraoxacyclohexane)-3′-spiro-1″-((4″R or S)- and (4″S or R)-ethoxycarbonyl)cyclohexane [Compound 1B12a]
Resistance Index [2]: 1.87 | Strain D6 IC50 [3]: 0.00672 µg/mL | Strain W2 IC50 [4]: 0.01256 µg/mL
